This note sets out measurements from PMC6292454 (Biochemical Journal, 2018).

Where two headings read alike, the source gives them in different places.

Assay [1] has as its target T1, NA2009wt (recombinant neuraminidase) (Influenza A virus, UniProt C3W6G3). Kind of assay: biochemical. The assay is classed as binding, A/California/07/2009 (H1N1) influenza virus.
Assay [2] deals with T1, NA2009wt (recombinant neuraminidase). As to the kind of experiment: biochemical. The assay is classed as biochemical, A/California/07/2009 (H1N1) influenza virus. The conditions noted are these: for decrease in potency relative to oseltamivir carboxylate (4): fluorometric assay; for decrease in potency relative to oseltamivir carboxylate (4) / Ki values, fluorometric assay, as described in the text: pH 6.15; for Ki values, fluorometric assay, as described in the text: units given in the value.

Broadly, the Ki is a dissociation constant, usually derived from enzyme kinetics or from competition with a known ligand. For the compound `CCC(CC)O[C@@H]1C=C(C(=O)O)C[C@H](N[C@@H](C)C(=O)O)[C@H]1NC(C)=O` [compound 8], the Ki in assay [1] was found to be 170 ± 60 nM. In addition, in assay [2], the Ki turned out to be 15 ± 2 nM and the “decrease in potency relative to oseltamivir carboxylate (4)” value is on record as “comparable to that of oseltamivir carboxylate”.
On to `CCC(CC)O[C@@H]1C=C(C(=O)O)C[C@H](NC(=O)COCCOCCOC)[C@H]1NC(C)=O` [compound 11], for which, in assay [2], the “Ki values, fluorometric assay, as described in the text” value was “micromolar range”.
Consider `CCC(CC)O[C@@H]1C=C(P(=O)(O)O)C[C@H](N)[C@H]1NC(C)=O` [compound 2, tamiphosphor, reference compound], for which the values for the Ki in assay [1] and in assay [2] were 52 ± 9 nM and 26 ± 4 nM, respectively.
With `CCC(CC)O[C@@H]1C=C(C(=O)O)C[C@H](N[C@H](C)C(=O)O)[C@H]1NC(C)=O` [compound 9], the Ki in assay [1] amounted to 960 ± 260 nM. Further, in assay [2], the Ki was determined as 250 ± 40 nM and the “decrease in potency relative to oseltamivir carboxylate (4)” value was around 10 fold.
Consider `CCC(CC)O[C@@H]1C=C(C(=O)O)C[C@H](N[C@@H](CC(=O)O)C(=O)O)[C@H]1NC(C)=O` (mixture of isomers) [compound 10], for which the “Ki values, fluorometric assay, as described in the text” value in assay [2] is “micromolar range”.
